Tests used:
[1] = Extraction with TODGA from HNO3, complexing agent in aqueous phase, distribution ratio by gamma spectrometry; conditions: for DEu(III) / DAm(III): 0.2 mol/L TODGA + 5 % vol. 1-Octanol in Kerosin; for SFEu(III)/Am(III): separation factor DEu(III)/DAm(III)
Excerpt: (§1) D2EHPA bestimmt. Aus allen Versuchen wurden die Verteilungsverhältnisse (Verhältnis der organischen zur wässrigen Konzentration) von Am(III) und Eu(III) mittels Gamma-Spektrometrie bestimmt. Die Berechnung der Verteilungsverhältnisse DM ergibt sich aus den Zählraten des Gammazählers, welcher die radioaktiven ^241Am (III) - und ^152Eu(III) - Isotope in volumengleichen Proben der wässrigen bzw. der organischen Phase erfasst gem. der Gleichung DM=[M]org/[M]aq, wobei die Konzentration des Metalls M aus [M]=Zählrate/Volumen berechnet wird.
Es wurden […] und ^152Eu(III) (je ca. 1 kBq/mL) aus 0.09 / 0.18 / 0.44 / 0.88 / 1.8 mol/L HNO3 in eine organische Phase bestehend aus (0.2 mol/L TODGA + 5 % vol. 1-Octanol in Kerosin) extrahiert.
Es wurden ^241Am(III) und ^152Eu(III) (je ca. 1 kBq/mL) aus 0.5 mol/L HNO3 in eine organische Phase bestehend aus (0.2 mol/L TODGA + 5 % vol. 1-Octanol in Kerosin) extrahiert. Die wässrige Phase enthielt entweder 0 mmol/L oder 10 mmol/L SO3-Ph-BTBP.

[2] = Extraction with D2EHPA from HNO3, complexing agent in aqueous phase, distribution ratio by gamma spectrometry; conditions: for DAm(III) / DEu(III): 10 mmol/L SO3-Ph-BTP in aqueous phase, 0.1 mol/L D2EHPA in Kerosin; for SFEu(III)/Am(III): separation factor DEu(III)/DAm(III), D2EHPA
Excerpt: as §1
Es wurden ^241Am(III) und ^152Eu(III) (je ca. 1 kBq/mL) aus 0.045 / 0.09 / 0.18 / 0.44 mol/L HNO3 in eine organische Phase bestehend aus (0.1 mol/L D2EHPA in Kerosin) extrahiert.

[3] = Back-extraction from loaded TODGA organic phase (simulated PUREX raffinate) into aqueous complexing agent solution; conditions: after back-extraction into 10 mmol/L SO3-Ph-BTP in water
Excerpt: as §1
Einem inaktiven Simulat eines PUREX-Raffinats wurden ^241Am(III) und ^I52Eu(III) (je ca. 1 kBq/mL) zugegeben. Es wurde in eine organische Phase bestehend aus (0.2 mol/L TODGA + 5 % vol. 1-Octanol in Kerosin) extrahiert.

Solubility in water = format: physicochemical
[4] = loaded 0.2 mol/L TODGA + 5 % vol. 1-Octanol in Kerosin
[5] = 10 mmol/L SO3-Ph-BTBP in aqueous phase, 0.5 mol/L HNO3

2,6-Bis(5,6-di(sulfophenyl)-1,2,4-triazin-3-yl)pyridine [SO3-Ph-BTP]
DEu(III) ([1]; 10 mmol/L SO3-Ph-BTP in aqueous phase, 0,09 mol/L HNO3): 1.2
DEu(III) ([1]; 10 mmol/L SO3-Ph-BTP in aqueous phase, 0,18 mol/L HNO3): 11.9
DEu(III) ([1]; 10 mmol/L SO3-Ph-BTP in aqueous phase, 0,44 mol/L HNO3): 180
DEu(III) ([1]; 10 mmol/L SO3-Ph-BTP in aqueous phase, 0,88 mol/L HNO3): > 10^3
DEu(III) ([1]; 10 mmol/L SO3-Ph-BTP in aqueous phase, 1,8 mol/L HNO3): > 10^3
Trennfaktor SFEu(III)/Am(III) ([1]; 10 mmol/L SO3-Ph-BTP, ca. 0.1-0.5 mol/L HNO3, TODGA): 500-1000
DAm(III) ([1]; 10 mmol/L complexing agent in aqueous phase, 0,09 mol/L HNO3): 1.1·10^-3
DAm(III) ([1]; 10 mmol/L complexing agent in aqueous phase, 0,18 mol/L HNO3): 0.014
DAm(III) ([1]; 10 mmol/L complexing agent in aqueous phase, 0,44 mol/L HNO3): 0.35
DAm(III) ([1]; 10 mmol/L complexing agent in aqueous phase, 0,88 mol/L HNO3): 4.5
DAm(III) ([1]; 10 mmol/L complexing agent in aqueous phase, 1,8 mol/L HNO3): 90
SFEu(III)/Am(III) ([1]; 10 mmol/L complexing agent, 0,09 mol/L HNO3, TODGA): 1100
SFEu(III)/Am(III) ([1]; 10 mmol/L complexing agent, 0,18 mol/L HNO3, TODGA): 850
SFEu(III)/Am(III) ([1]; 10 mmol/L complexing agent, 0,44 mol/L HNO3, TODGA): 510
SFEu(III)/Am(III) ([1]; 10 mmol/L complexing agent, 0,88 mol/L HNO3, TODGA): > 220
SFEu(III)/Am(III) ([1]; 10 mmol/L complexing agent, 1,8 mol/L HNO3, TODGA): > 11
DAm(III) ([2]; 0.045 mol/L HNO3): 1.10^-3
DEu(III) ([2]; 0.045 mol/L HNO3): 5.3
DAm(III) ([2]; 0.09 mol/L HNO3): 4.10^-4
DEu(III) ([2]; 0.09 mol/L HNO3): 1.4
DAm(III) ([2]; 0.18 mol/L HNO3): 5.10^-5
DEu(III) ([2]; 0.18 mol/L HNO3): 0.37
DAm(III) ([2]; 0.44 mol/L HNO3): < d.l.
DEu(III) ([2]; 0.44 mol/L HNO3): 0.06
Trennfaktor SFEu(III)/Am(III) ([2]; 10 mmol/L SO3-Ph-BTP, D2EHPA in Kerosin): > 3000
SFEu(III)/Am(III) ([2]; 10 mmol/L SO3-Ph-BTP, 0.045 mol/L HNO3): 5200
SFEu(III)/Am(III) ([2]; 10 mmol/L SO3-Ph-BTP, 0.09 mol/L HNO3): 3400
SFEu(III)/Am(III) ([2]; 10 mmol/L SO3-Ph-BTP, 0.18 mol/L HNO3): 7000
DAm(III) [3, 4]: 0.059
DEu(III) [3, 4]: 49
Trennfaktor SFEu(III)/Am(III) ([3]; loaded TODGA phase): 830

6,6'-Bis(5, 6-di(sulfophenyl)-1, 2, 4-triazin-3-yl)-2,2'-bipyridine [SO3-Ph-BTBP]
Löslichkeit in Wasser (Solubility in water): > 0.1 mol/L
DAm(III) [1, 5]: 0.33
DEu(III) [1, 5]: 150
SFEu(III)/Am(III) ([1]; 10 mmol/L SO3-Ph-BTBP, 0.5 mol/L HNO3, TODGA): 450

Reference: patent EP2377861B1, “Water-soluble bis-triazinyl-pyridines, bipyridines and terpyridines, synthesis and use of same” (Karlsruher Institut für Technologie, priority 2010, dated 2011)
